Reference: PubChem BioAssay (NCI)
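1) Cells in 96-well plates. 2) Compound, 48 h, 5 concentrations. 3) Linear interpolation between surrounding doses. 4) Unreached endpoint = highest concentration. Here, GI50 denotes the concentration required for 50% inhibition of growth. TGI is the concentration that stops growth completely.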

How the values were obtained:
Experiment in all cases: growth of human tumour cells (NCI), 48 h
[1] = tested on: 786-0 renal
[2] = tested on: A498 renal
[3] = tested on: A549 NSCLC
[4] = tested on: ACHN renal
[5] = tested on: BT-549 breast
[6] = tested on: CAKI-1 renal
[7] = tested on: CCRF-CEM leukemia
[8] = tested on: COLO 205 colon
[9] = tested on: DU-145 prostate
[10] = tested on: HCC-2998 colon
[11] = tested on: HCT-116 colon
[12] = tested on: HCT-15 colon
[13] = tested on: HL-60(TB) leukemia
[14] = tested on: HOP-62 NSCLC
[15] = tested on: HOP-92 NSCLC
[16] = tested on: HS 578T breast
[17] = tested on: HT29 colon
[18] = tested on: IGROV1 ovarian
[19] = tested on: K-562 leukemia
[20] = tested on: KM12 colon
[21] = tested on: LOX IMVI melanoma
[22] = tested on: M14 melanoma
[23] = tested on: MALME-3M melanoma
[24] = tested on: MCF7 breast
[25] = tested on: MDA-MB-231 breast
[26] = tested on: MDA-MB-435
[27] = tested on: MOLT-4 leukemia
[28] = tested on: NCI-H226 lung
[29] = tested on: NCI-H23 lung
[30] = tested on: NCI-H460 lung
[31] = tested on: NCI-H522 lung
[32] = tested on: NCI/ADR-RES ovarian
[33] = tested on: OVCAR-3 ovarian
[34] = tested on: OVCAR-4 ovarian
[35] = tested on: OVCAR-5 ovarian
[36] = tested on: OVCAR-8 ovarian
[37] = tested on: PC-3 prostate
[38] = tested on: RPMI-8226 leukemia
[39] = tested on: SF-268 CNS
[40] = tested on: SF-295 CNS
[41] = tested on: SF-539 CNS
[42] = tested on: SK-MEL-2 melanoma
[43] = tested on: SK-MEL-28 melanoma
[44] = tested on: SK-MEL-5 melanoma
[45] = tested on: SK-OV-3 ovarian
[46] = tested on: SN12C renal
[47] = tested on: SNB-19 CNS
[48] = tested on: SNB-75 CNS
[49] = tested on: SR leukemia
[50] = tested on: SW-620 colon
[51] = tested on: T-47D breast
[52] = tested on: TK-10 renal
[53] = tested on: UACC-257 melanoma
[54] = tested on: UACC-62 melanoma
[55] = tested on: UO-31 renal

O=C(NCCCN1CCC(N2CCCCC2)CC1)C1=Cc2cc(Br)ccc2OC1
GI50 [1]: 11.2 µM
TGI [1]: 25.8 µM
GI50 [2]: 3.88 µM
TGI [2]: 18.7 µM
GI50 [3]: 5.66 µM
TGI [3]: 20.1 µM
GI50 [4]: 10.2 µM
TGI [4]: 27 µM
GI50 [5]: 13.9 µM
TGI [5]: 33 µM
GI50 [6]: 2.46 µM
TGI [6]: 6.09 µM
GI50 [7]: 4.24 µM
TGI [7]: 20.2 µM
GI50 [8]: 2.16 µM
TGI [8]: 4.29 µM
GI50 [9]: 15.5 µM
TGI [9]: 30.4 µM
GI50 [10]: 13.5 µM
TGI [10]: 27.2 µM
GI50 [11]: 5.29 µM
TGI [11]: 21.8 µM
GI50 [12]: 3.47 µM
TGI [12]: 17.1 µM
GI50 [13]: 4.94 µM
TGI [13]: 19.3 µM
GI50 [14]: 13.8 µM
TGI [14]: 27.2 µM
GI50 [15]: 3.68 µM
TGI [15]: 19.8 µM
GI50 [16]: 12.2 µM
TGI [16]: 33.4 µM
GI50 [17]: 3.21 µM
TGI [17]: 12.5 µM
GI50 [18]: 15.9 µM
TGI [18]: 39.4 µM
GI50 [19]: 1.98 µM
TGI [19]: 4.63 µM
GI50 [20]: 13.7 µM
TGI [20]: 27.8 µM
GI50 [21]: 2.59 µM
TGI [21]: 5.73 µM
GI50 [22]: 2.22 µM
TGI [22]: 4.71 µM
GI50 [23]: 2.11 µM
TGI [23]: 3.89 µM
GI50 [24]: 4.45 µM
TGI [24]: 17.1 µM
GI50 [25]: 3.62 µM
TGI [25]: 13.8 µM
GI50 [26]: 1.69 µM
TGI [26]: 3.55 µM
GI50 [27]: 7.41 µM
TGI [27]: 26.3 µM
GI50 [28]: 16.9 µM
TGI [28]: 34.5 µM
GI50 [29]: 16.9 µM
TGI [29]: 36.2 µM
GI50 [30]: 8.43 µM
TGI [30]: 23.6 µM
GI50 [31]: 2.32 µM
TGI [31]: 6.12 µM
GI50 [32]: 19.1 µM
TGI [32]: 52.2 µM
GI50 [33]: 12.3 µM
TGI [33]: 26.8 µM
GI50 [34]: 10 µM
TGI [34]: 32 µM
GI50 [35]: 19.9 µM
TGI [35]: 70.2 µM
GI50 [36]: 4.82 µM
TGI [36]: 26.9 µM
GI50 [37]: 11.7 µM
TGI [37]: 26.8 µM
GI50 [38]: 4.54 µM
TGI [38]: 22.4 µM
GI50 [39]: 3.51 µM
TGI [39]: 13 µM
GI50 [40]: 8.58 µM
TGI [40]: 24.8 µM
GI50 [41]: 2.09 µM
TGI [41]: 5.04 µM
GI50 [42]: 8.14 µM
TGI [42]: 22.1 µM
GI50 [43]: 1.83 µM
TGI [43]: 3.54 µM
GI50 [44]: 1.89 µM
TGI [44]: 3.61 µM
GI50 [45]: 16.2 µM
TGI [45]: 30.9 µM
GI50 [46]: 10.4 µM
TGI [46]: 24.1 µM
GI50 [47]: 14.2 µM
TGI [47]: 31.3 µM
GI50 [48]: 10.9 µM
TGI [48]: 23.3 µM
GI50 [49]: 2.5 µM
TGI [49]: 6.15 µM
GI50 [50]: 5.16 µM
TGI [50]: 19 µM
GI50 [51]: 2.04 µM
TGI [51]: 4.98 µM
GI50 [52]: 14.3 µM
TGI [52]: 27.7 µM
GI50 [53]: 1.9 µM
TGI [53]: 3.89 µM
GI50 [54]: 1.83 µM
TGI [54]: 3.49 µM
GI50 [55]: 6.71 µM
TGI [55]: 20.4 µM
